Laboratory results published in patent US6696495B2, “Treatment of disorders secondary to organic impairments” (Snowden Pharmaceuticals, LLC, priority 1998, dated 2004).

Test system: Severe Atypical Psychosis
Test: Case history 1, Sibutramine Patient No. 97
Format: in vivo, human
Settings: human, in vivo

Structure (SMILES)	response of psychosis symptoms to other medications
Cc1nc2n(c(=O)c1CCN1CCC(c3noc4cc(F)ccc34)CC1)CCCC2 [risperidone]	without success

Same assay, conditions: treatments before sibutramine

Structure (SMILES)	response of psychosis symptoms to other medications
NC12CC3CC(CC(C3)C1)C2 [amantadine]	without success
O=C1CC2(CCCC2)CC(=O)N1CCCCN1CCN(c2ncccn2)CC1 [buspirone]	without success
O=C1Nc2ccc(Cl)cc2C(c2ccccc2Cl)=NC1O (centres unmarked) [lorazepam]	without success
Fc1ccc([C@@H]2CCNC[C@H]2COc2ccc3c(c2)OCO3)cc1 [paroxetine]	without success
OCCOCCN1CCN(C2=Nc3ccccc3Sc3ccccc32)CC1 [quetiapine]	did not control their symptoms
CN1CCN(CCCN2c3ccccc3Sc3ccc(C(F)(F)F)cc32)CC1 [trifluoperazine]	without success

Test system: Sexual Function, ADD, and Rage Outbursts
Test: Case history 3, Sibutramine Patient No. 100
Format: in vivo, human
Settings: human, in vivo

Structure (SMILES)	response to other medications
O=C([O-])[O-].[Li+].[Li+] [lithium carbonate]	unsuccessful and made their obesity worse
CNCCC=C1c2ccccc2CCc2ccccc21 [nortriptyline]	unsuccessful

Same assay, conditions: mood swings, cognitive, anger, sexual problems; before sibutramine

Structure (SMILES)	response to other medications
CNCCCN1c2ccccc2CCc2ccccc21 [desipramine]	not helpful
COc1cc2c(cc1OC)C(=O)C(CC1CCN(Cc3ccccc3)CC1)C2 (centres unmarked) [donepezil]	not helpful
CCNC(C)Cc1cccc(C(F)(F)F)c1 (centres unmarked) [fenfluramine]	not helpful
CN(C)CCCN1c2ccccc2CCc2ccccc21 [imipramine]	unsuccessful
Nc1nnc(-c2cccc(Cl)c2Cl)c(N)n1 [lamotrigine]	not helpful
CC(C)(N)Cc1ccccc1 [phenteramine]	helped them lose a small amount of weight but did not affect their other problems
C#CCN(C)[C@H](C)Cc1ccccc1 [selegiline]	not helpful
CCCc1nn(C)c2c(=O)[nH]c(-c3cc(S(=O)(=O)N4CCN(C)CC4)ccc3OCC)nc12 [sildenafil]	did not help their sexual libido
N[C@@H](Cc1cc(I)c(Oc2cc(I)c(O)c(I)c2)c(I)c1)C(=O)O [thyroxine]	not helpful

Test system: Sexual Function and ADD
Test: Case history 4, Sibutramine Patient No. 109
Format: in vivo, human
Settings: before sibutramine

Structure (SMILES)	response to other medications
Nc1nnc(-c2cccc(Cl)c2Cl)c(N)n1 [lamotrigine]	unsuccessful
CC(C)NCC(O)COc1cccc2ccccc12 (centres unmarked) [propranolol]	unsuccessful
CCCc1nn(C)c2c(=O)[nH]c(-c3cc(S(=O)(=O)N4CCN(C)CC4)ccc3OCC)nc12 [sildenafil]	only increased sexual function but not libido
COC(=O)[C@@H]1[C@H]2C[C@H]3c4[nH]c5ccccc5c4CCN3C[C@@H]2CC[C@@H]1O [yohimbine]	unsuccessful

Test system: Sexual Gender Choice Change
Test: Case history 7, Sibutramine Patient No. 99
Format: in vivo, human
Settings: depression; impulsive behaviors, mood swings, epileptic symptoms

Structure (SMILES)	response to other medications
COc1cc2c(cc1OC)C(=O)C(CC1CCN(Cc3ccccc3)CC1)C2 (centres unmarked) [donepezil]	refractory
CN(C)CCCN1c2ccccc2CCc2ccccc21 [imipramine]	refractory
CN[C@H]1CC[C@@H](c2ccc(Cl)c(Cl)c2)c2ccccc21 [sertraline]	refractory

Same assay, conditions: human, in vivo

Structure (SMILES)	response to other medications
O=C([O-])[O-].[Li+].[Li+] [lithium carbonate]	refractory

Test system: Tourette's Disease Tics, Violence, and ADHD
Test: Case history 8, Sibutramine Patient No. 47
Format: in vivo, human
Settings: human, in vivo

Structure (SMILES)	response to other medications
Cc1nc2n(c(=O)c1CCN1CCC(c3noc4cc(F)ccc34)CC1)CCCC2 [risperidone]	without any good results

Same assay, conditions: over six years before sibutramine

Structure (SMILES)	response to other medications
CN(C)CCCN1c2ccccc2CCc2ccc(Cl)cc21 [clomipramine]	without any good results
Clc1cccc(Cl)c1N=C1NCCN1 [clonidine]	without any good results
CNCCCN1c2ccccc2CCc2ccccc21 [desipramine]	without any good results
COc1cc2c(cc1OC)C(=O)C(CC1CCN(Cc3ccccc3)CC1)C2 (centres unmarked) [donepezil]	helped their cognitive problems without aggravating their tics or their outbursts
NC(=O)OCC(COC(N)=O)c1ccccc1 [felbamate]	without any good results
CCNC(C)Cc1cccc(C(F)(F)F)c1 (centres unmarked) [fenfluramine]	without any good results
OCCOCCN1CCN(C(c2ccccc2)c2ccc(Cl)cc2)CC1 (centres unmarked) [hydroxyzine]	without any good results
Nc1nnc(-c2cccc(Cl)c2Cl)c(N)n1 [lamotrigine]	without any good results
O=C1NC(=O)C(c2ccccc2)(c2ccccc2)N1 [phenytoin]	without any good results
CC(C)NCC(O)COc1cccc2ccccc12 (centres unmarked) [propranolol]	without any good results
OCCOCCN1CCN(C2=Nc3ccccc3Sc3ccccc32)CC1 [quetiapine]	without any good results
C#CCN(C)[C@H](C)Cc1ccccc1 [selegiline]	without any good results
Nc1c2c(nc3ccccc13)CCCC2 [tacrine]	without any good results

Test system: Asocial Behavior, Violence, and Hyposexuality
Test: Case history 10, Sibutramine Patient No. 54
Format: in vivo, human
Settings: before sibutramine

Structure (SMILES)	response to other medications
OC(O)C(Cl)(Cl)Cl [chloral hydrate]	without any changes in their speech or mode of communication
CCNC(C)Cc1cccc(C(F)(F)F)c1 (centres unmarked) [fenfluramine]	without any changes in their speech or mode of communication
CC(C)(C)NCC(O)COc1cccc2c1CC(O)C(O)C2 (centres unmarked) [nadolol]	without any changes in their speech or mode of communication
CC(C)NCC(O)COc1cccc2ccccc12 (centres unmarked) [propranolol]	without any changes in their speech or mode of communication
OCCOCCN1CCN(C2=Nc3ccccc3Sc3ccccc32)CC1 [quetiapine]	without any changes in their speech or mode of communication
CSc1ccc2c(c1)N(CCC1CCCCN1C)c1ccccc1S2 (centres unmarked) [thioridazine]	without any changes in their speech or mode of communication

Test system: Severe Post-Traumatic Stress Reaction
Test: not given
Settings: before sibutramine
Procedure: Finally, this patient was taken off of fluoxetine 20 mg when sibutramine treatment was initiated.

Structure (SMILES)	response of PTSD symptoms to other medications
CCNC(C)Cc1cccc(C(F)(F)F)c1 (centres unmarked) [fenfluramine]	unsuccessful
NC(=O)N1c2ccccc2CC(=O)c2ccccc21 [oxcarbazepine]	unsuccessful
NC1=NC(=O)C(c2ccccc2)O1 (centres unmarked) [pemoline]	unsuccessful
O=C1NC(=O)C(c2ccccc2)(c2ccccc2)N1 [phenytoin]	unsuccessful

Same assay, conditions: human, in vivo

Structure (SMILES)	response of PTSD symptoms to other medications
O=C1CC2(CCCC2)CC(=O)N1CCCCN1CCN(c2ncccn2)CC1 [buspirone]	unsuccessful

Test system: Reflex Sympathetic Dystrophy Syndrome (RSDS); Complex Regional Pain Syndrome (CRPS)
Test: Case history 27
Format: in vivo, human
Settings: before sibutramine

Structure (SMILES)	response to other treatments
CN(C)CCC=C1c2ccccc2CCc2ccccc21 [Elavil]	helped their sleep and slightly increased their appetite but did not affect the pain
NCC1(CC(=O)O)CCCCC1 [Neurontin]	ineffective

Same assay, conditions: in vivo

Structure (SMILES)	response to other treatments
CCN(CC)CC(=O)Nc1c(C)cccc1C [lidocaine]	numbed the area

Test system: Tourette's Tics, Asocial Behavior, and Relief of Hyposexuality
Test: not given
Settings: before sibutramine

Structure (SMILES)	response to other medications
CN(C)CCCN1c2ccccc2CCc2ccc(Cl)cc21 [clomipramine]	without success
CCN[C@@H](C)Cc1cccc(C(F)(F)F)c1 [dextrofenfluramine]	without success
COc1cc2c(cc1OC)C(=O)C(CC1CCN(Cc3ccccc3)CC1)C2 (centres unmarked) [donepezil]	without success
NC(=O)OCC(COC(N)=O)c1ccccc1 [felbamate]	without success
CCNC(C)Cc1cccc(C(F)(F)F)c1 (centres unmarked) [fenfluramine]	without success
OCCN1CCN(CCCN2c3ccccc3Sc3ccc(C(F)(F)F)cc32)CC1 [fluphenazine]	without success
COCCCC/C(=N\OCCN)c1ccc(C(F)(F)F)cc1 [fluvoxamine]	without success
Nc1nnc(-c2cccc(Cl)c2Cl)c(N)n1 [lamotrigine]	without success
C#CCN(C)[C@H](C)Cc1ccccc1 [selegiline]	without success
Nc1c2c(nc3ccccc13)CCCC2 [tacrine]	without success

Same assay, conditions: human, in vivo

Structure (SMILES)	fall of IQ [points]
CN1CCN(C2=Nc3cc(Cl)ccc3Nc3ccccc32)CC1 [Clozapine]	30

Test system: Non-Tourette's tics, obsessive-compulsive rituals, and attention deficit hyperactive disorder (ADHD)
Test: not given
Settings: before sibutramine

Structure (SMILES)	response to other medications
CC(N)Cc1ccccc1 (centres unmarked) [amphetamine]	helped their hyperactivity and OCD symptoms in part
COc1cc2c(cc1OC)C(=O)C(CC1CCN(Cc3ccccc3)CC1)C2 (centres unmarked) [donepezil]	unsuccessful
COCCCC/C(=N\OCCN)c1ccc(C(F)(F)F)cc1 [fluvoxamine]	helped their hyperactivity and OCD symptoms in part
Nc1nnc(-c2cccc(Cl)c2Cl)c(N)n1 [lamotrigine]	without success
CCCN(CCC)CCc1cccc2c1CC(=O)N2 [ropinirole]	unsuccessful

Test system: frontal lobe executive function, ADHD, and hyposexuality
Test: not given
Settings: human, in vivo

Structure (SMILES)	response to other medications
COc1cc2c(cc1OC)C(=O)C(CC1CCN(Cc3ccccc3)CC1)C2 (centres unmarked) [donepezil]	unsuccessful
Nc1nnc(-c2cccc(Cl)c2Cl)c(N)n1 [lamotrigine]	unsuccessful
C#CCN(C)[C@H](C)Cc1ccccc1 [selegiline]	unsuccessful
CCCc1nn(C)c2c(=O)[nH]c(-c3cc(S(=O)(=O)N4CCN(C)CC4)ccc3OCC)nc12 [sildenafil]	helped correct the mechanical dysfunction but not the libido

Test system: Fibromyalgia—Chronic Fatigue Syndrome
Test: not given
Settings: before sibutramine

Structure (SMILES)	response to other medications
COc1ccc2cc(CCC(C)=O)ccc2c1 [nabumetone]	unsuccessfully
O=C(O)CCc1nc(-c2ccccc2)c(-c2ccccc2)o1 [oxaprozin]	unsuccessfully
COc1cccc(C2(O)CCCCC2CN(C)C)c1 (centres unmarked) [tramadol]	unsuccessfully
